This passage reports IC50 and melting point results from US6645969B1, “Aryl and heteroaryl quinazoline compounds which inhibit CSF-1R receptor tyrosine kinase” (Aventis Pharmaceuticals Inc., priority 1991, dated 2003).

For one data set, the target named is T1, CSF-1R tyrosine kinase (Homo sapiens, UniProt P07333).
T1 construct: host or cells: unnamed cell lysate ('stimulated lysate')
As to the kind of experiment: CSF-1R cell-free autophosphorylation assay. The data set is classed as biochemical. How it is done:
CSF-1R Cell-free Autophosphorylation Assay
For a regular 28 tube assay (14 samples per 15 well gel):
In 2 ml eppendorf tube: 140 mg protein A sepharose (5 mg/sample)
Swell in 20 mM Hepes pH 7.5 and wash 2× in Hepes
In 15 ml tube: 2.8 ml lysate lysis buffer: 20 mM Hepes
Protease inhibitors added fresh:
PMSF: 8 mg/ml=[…] in 100% EtOH, store frozen, add 100 λ/10 ml lysis buffer Aprotinin: 10 mg/ml=250× in H2O, store frozen, add 40 λ/10 ml lysis buffer Leupeptin: 1 mg/ml=250× in H2O, store frozen, add 40 λ/10 ml lysis buffer Add washed beads to stimulated lysate and incubate 90 min 4° C. on rotator or shaking prepare 28 compound tubes: make 40 mM solutions of compounds in 100% DMSO make serial dilutions in 50 mM Tris pH 7.5+10 mM MnCl2 aliquot 10λ compound solution into each 1 ml eppendorf reaction tube waiting on ice, control blanks get 10λ buffer Wash beads 1×HNTG, 2×10 mM Tris pH 7.5
2.7λ cold ATP (stock of 10 mM in 50 mM
Vortex, incubate 10 min on ice
Add 45λ 2×SDS-sample buffer, heat 95° C. 6 min
7.5% SDS-PAGE, fix, dry, expose (usually 4 hrs)

The next data set concerns the target T2, p56^Ick tyrosine kinase (Homo sapiens, UniProt P06239).
T2 construct: samples containing Ick immuno-precipitated from 2×10^6 cells; endogenous in cells; host or cells: Jurkat (human T-cell leukemia, ATCC clone E6-1)
Nature of the data set: Ick kinase cell-free assay (immunoprecipitated from Jurkat lysate). The data set is classed as biochemical. As for the experimental part:
Ick Kinase: Immunoprecipitated from Jurkat Lysate
B. Cells are grown to 1-1.5×10^6 cells/ml media, pelleted by centrifugation, and lysed in lysis buffer at 10^8 cells/ml buffer (50 mM tris (pH 8), 150 mM NaCl, 5 mM EDTA, 10% glycerol, and 1% NP-40, to which fresh protease and phosphatase inhibitors are added as described above for A431 lysate). Lysates stored at −70° C.
C. Immunoprecipitation: 3-4 mg Protein-A sepharose/sample washed 2×20 mM Hepes (pH 7.5). 1 ul α-Ick antibody (prepared as polyclonals in rabbits using a peptide antigen corresponding to the N-terminal region of human Ick) per sample added to the Protein-A and shaken 20 min at room temperature. After washing 3× HNTG, lysate from 2×10^6 cells is added to each sample, rotated 2 hr at 4° C., then washed 3× HNTG (2nd wash containing 0.5 N NaCl). If all samples contain identical concentrations of the enzyme, then the immuno-precipitation can be done in bulk and alloquoted to appropriate numbers of tubes prior to assay set-up.
Samples are analyzed by 5-15% SDS-PAGE and autoradiography as described for EGFR kinase assays.

T1 sequence (P07333 20-972): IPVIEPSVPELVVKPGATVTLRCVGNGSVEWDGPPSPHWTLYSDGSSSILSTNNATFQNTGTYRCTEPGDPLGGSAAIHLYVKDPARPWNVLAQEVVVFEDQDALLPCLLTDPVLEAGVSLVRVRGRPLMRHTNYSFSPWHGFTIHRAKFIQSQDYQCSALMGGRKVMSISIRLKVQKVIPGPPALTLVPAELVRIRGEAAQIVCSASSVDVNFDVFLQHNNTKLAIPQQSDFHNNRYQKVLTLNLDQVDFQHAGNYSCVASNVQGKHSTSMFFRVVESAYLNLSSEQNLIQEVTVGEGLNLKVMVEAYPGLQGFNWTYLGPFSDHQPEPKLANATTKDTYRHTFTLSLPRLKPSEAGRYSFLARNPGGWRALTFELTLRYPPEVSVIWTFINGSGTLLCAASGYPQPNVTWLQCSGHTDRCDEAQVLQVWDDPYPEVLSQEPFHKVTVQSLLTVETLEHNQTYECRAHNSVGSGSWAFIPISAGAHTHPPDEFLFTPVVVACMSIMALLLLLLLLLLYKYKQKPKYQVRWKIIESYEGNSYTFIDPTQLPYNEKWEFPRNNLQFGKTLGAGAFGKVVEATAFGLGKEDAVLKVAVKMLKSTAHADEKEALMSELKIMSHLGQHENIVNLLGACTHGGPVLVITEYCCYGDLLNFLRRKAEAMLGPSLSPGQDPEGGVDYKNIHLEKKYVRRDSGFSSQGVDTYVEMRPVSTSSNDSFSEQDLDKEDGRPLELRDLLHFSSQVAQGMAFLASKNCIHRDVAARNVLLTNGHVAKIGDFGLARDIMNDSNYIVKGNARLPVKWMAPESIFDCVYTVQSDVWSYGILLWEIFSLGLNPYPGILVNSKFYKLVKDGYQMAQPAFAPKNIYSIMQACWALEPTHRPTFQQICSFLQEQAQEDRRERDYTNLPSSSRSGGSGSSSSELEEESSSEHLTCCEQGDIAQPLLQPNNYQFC
T2 sequence (P06239 whole entry): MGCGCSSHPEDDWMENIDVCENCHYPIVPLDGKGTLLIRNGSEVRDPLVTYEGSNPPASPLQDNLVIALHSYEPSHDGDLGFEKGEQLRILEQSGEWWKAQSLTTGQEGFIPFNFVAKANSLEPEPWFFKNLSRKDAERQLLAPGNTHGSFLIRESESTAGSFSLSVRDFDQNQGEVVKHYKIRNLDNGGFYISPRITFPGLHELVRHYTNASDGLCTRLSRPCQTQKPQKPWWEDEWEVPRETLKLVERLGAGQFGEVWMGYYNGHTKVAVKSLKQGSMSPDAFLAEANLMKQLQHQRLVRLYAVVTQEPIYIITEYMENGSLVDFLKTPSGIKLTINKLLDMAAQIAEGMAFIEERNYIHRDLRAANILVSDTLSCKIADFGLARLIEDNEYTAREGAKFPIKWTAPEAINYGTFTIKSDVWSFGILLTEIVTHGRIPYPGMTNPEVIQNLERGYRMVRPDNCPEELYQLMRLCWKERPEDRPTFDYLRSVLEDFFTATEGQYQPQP

Turning to `COc1cc2ncnc(-c3ccsc3)c2cc1OC`, the IC50 (commonly the point on the concentration scale where inhibition reaches its midpoint) on CSF-1R tyrosine kinase is 6 µM; at p56^Ick tyrosine kinase, more than 10 µM.

As to `COc1cc2ncnc(N(C)c3ccccc3)c2cc1OC`, the IC50 was 0.5 µM at CSF-1R tyrosine kinase and more than 50 µM against p56^Ick tyrosine kinase.

Regarding `CCN(c1ccccc1)c1ncnc2cc(OC)c(OC)cc12`, the results for the IC50 against CSF-1R tyrosine kinase and against p56^Ick tyrosine kinase were 4 µM and more than 50 µM, respectively.

With `COc1cc(Nc2ncnc3cc(OC)c(OC)cc23)cc(OC)c1`, the IC50 at CSF-1R tyrosine kinase was more than 100 µM.

The compound `COc1cc2ncnc(Nc3cc(OC)c(OC)c(OC)c3)c2cc1OC` returned an IC50 against CSF-1R tyrosine kinase of more than 100 µM.

As for `COc1cc2ncnc(NC3CCCCC3)c2cc1OC`, on CSF-1R tyrosine kinase, the IC50 was more than 50 µM.

At CSF-1R tyrosine kinase, `COc1cc2ncnc(Nc3ccc4ccccc4c3)c2cc1OC` gave an IC50 of more than 50 µM.

Take `COc1cc2ncnc(Nc3cccc4ccccc34)c2cc1OC`: the IC50 is more than 50 µM against CSF-1R tyrosine kinase and 2.5 µM against p56^Ick tyrosine kinase.

Take `COc1ccc(Nc2ncnc3cc(OC)c(OC)cc23)cc1OC`: the IC50 on CSF-1R tyrosine kinase was more than 20 µM.

In the case of `COc1cc2ncnc(NCc3ccccc3)c2cc1OC`, the IC50 against CSF-1R tyrosine kinase is not below 20 µM; against p56^Ick tyrosine kinase, 20 µM.

Take `COc1cc2ncnc(Sc3cccc(Cl)c3)c2cc1OC`: the IC50 turned out to be 3 µM against CSF-1R tyrosine kinase and 2.5 µM against p56^Ick tyrosine kinase.

As for `COc1cccc(Sc2ncnc3cc(OC)c(OC)cc23)c1`, the values for the IC50 against CSF-1R tyrosine kinase and at p56^Ick tyrosine kinase were 1 µM and 5 µM, respectively.

In the case of `COc1cc2ncnc(Oc3cc(OC)c(OC)c(OC)c3)c2cc1OC`, the IC50 was more than 50 µM against CSF-1R tyrosine kinase and 5 µM against p56^Ick tyrosine kinase.

Consider `COc1cc2ncnc(-c3cccc(-c4ccccc4)c3)c2cc1OC`, for which the IC50 is 15 µM on CSF-1R tyrosine kinase and 2.9 µM on p56^Ick tyrosine kinase.

Consider `COc1cc2ncnc(Oc3cccc(Cl)c3)c2cc1OC` [Example 1, 4-(3-Chlorophenoxy)-6,7-dimethoxyquinazoline], for which the melting point (commonly the temperature, or range, at which the solid turns liquid) fell in the range of 152 to 153 °C.

As to `COc1cc2ncnc(Oc3cccc(Cl)c3)c2cc1OC` [drawing 19], the IC50 at CSF-1R tyrosine kinase was more than 50 µM; against p56^Ick tyrosine kinase, 1 µM.
